Experiments:
Acinetobacter baumannii [1] = test: Antibiofilm activity against Acinetobacter baumannii S1 assessed as inhibition rate of biofilm formation at 100 uM incubated for 18 to 24 hrs by crystal violet staining based assay (reference value: 28.8 +/- 8.21%); assay type: functional; set-up: scale not given: the % may be the effect or the level left; details: time 18-24 hrs
Acinetobacter baumannii [2] = test: Antibacterial activity against Acinetobacter baumannii S1 assessed as planktonic growth inhibition incubated for 18 to 24 hrs by CLSI protocol based assay; assay type: functional; details: time 18-24 hrs
Acinetobacter baumannii [3] = test: Antibacterial activity against Acinetobacter baumannii assessed as planktonic growth inhibition incubated for 18 to 24 hrs by CLSI protocol based assay; assay type: functional; details: time 18-24 hrs
Escherichia coli = test: Antibiofilm activity against Escherichia coli Dh5alpha assessed as inhibition rate of biofilm formation at 200 uM incubated for 18 to 24 hrs by crystal violet staining based assay relative to control; assay type: functional; details: DH5-alpha, time 18-24 hrs
Staphylococcus aureus = test: Antibiofilm activity against Staphylococcus aureus ATCC […] assessed as inhibition rate of biofilm formation at 200 uM incubated for 18 to 24 hrs by crystal violet staining based assay relative to control; assay type: functional; details: time 18-24 hrs
Acinetobacter baumannii [4] = test: Antibiofilm activity against Acinetobacter baumannii 1913061 assessed as inhibition of biofilm formation incubated for 18 to 24 hrs by crystal violet staining based assay; assay type: functional, organism-based
Acinetobacter baumannii [5] = test: Antibiofilm activity against Acinetobacter baumannii 1925052 assessed as inhibition of biofilm formation incubated for 18 to 24 hrs by crystal violet staining based assay; assay type: functional, organism-based
Acinetobacter baumannii [6] = test: Antibiofilm activity against Acinetobacter baumannii 1780608 assessed as inhibition of biofilm formation incubated for 18 to 24 hrs by crystal violet staining based assay; assay type: functional, organism-based
Acinetobacter baumannii [7] = test: Antibiofilm activity against Acinetobacter baumannii S1 assessed as inhibition of biofilm formation incubated for 18 to 24 hrs by crystal violet staining based assay; assay type: functional, organism-based
Acinetobacter baumannii [8] = test: Antibiofilm activity against Acinetobacter baumannii ATCC19606 assessed as inhibition of biofilm formation incubated for 18 to 24 hrs by crystal violet staining based assay; assay type: functional, organism-based
Acinetobacter baumannii [9] = test: Antibiofilm activity against Acinetobacter baumannii 1778027 assessed as inhibition rate of biofilm formation at 200 uM incubated for 18 to 24 hrs by crystal violet staining based assay relative to control; assay type: functional; details: time 18-24 hrs
Pseudomonas aeruginosa = test: Antibiofilm activity against Pseudomonas aeruginosa ATCC 27853 assessed as inhibition rate of biofilm formation at 200 uM incubated for 18 to 24 hrs by crystal violet staining based assay relative to control; assay type: functional; details: time 18-24 hrs
[10] = tested on: Staphylococcus epidermidis; test: Antibiofilm activity against Staphylococcus epidermis ATCC 102555 assessed as inhibition rate of biofilm formation at 200 uM incubated for 18 to 24 hrs by crystal violet staining based assay relative to control; assay type: functional; details: time 18-24 hrs

| SMILES | Activity (Acinetobacter baumannii [1]) [%] | MIC (Acinetobacter baumannii [2]) [µg/mL] | further results |
| --- | --- | --- | --- |
| O=C(CCc1ccccc1)Nc1ncccn1 | -0.2 | > 256 | – |
| CN[C@@H]1[C@@H](O)[C@@H](O[C@@H]2[C@@H](O)[C@H](O[C@H]3O[C@H]([C@@H](C)NC)CC[C@H]3N)[C@@H](N)C[C@H]2N)OC[C@]1(C)O.O=S(=O)(O)O | – | – | MIC (Acinetobacter baumannii [3]): 1 µg/mL |
| CC(C)CC(=O)Nc1ncccn1 | 3.8 | > 256 | – |
| CCCCCC(=O)Nc1ncccn1 | 23.3 | > 256 | – |
| CC(C)(C)C(=O)Nc1ncccn1 | 12.3 | > 256 | – |
| CCCCCCCCCCCCCC(=O)Nc1nc(Cl)cc(N(C)C)n1 | 40.5 | > 256 | – |
| CCOC(=O)CCC(=O)Nc1ncccn1 | 19.1 | > 256 | – |
| CCCCCCCCCCCCCC(=O)Nc1nccc(N)n1 | 35.8 | > 256 | – |
| O=C(Nc1ncccn1)c1cccc2ccccc12 | 9.4 | > 256 | – |
| O=C(COc1ccccc1)Nc1ncccn1 | 18.2 | > 256 | – |
| O=C(Cc1cccc(Br)c1)N[C@H]1CCOC1=O | – | – | inhibition at 200 µM (Escherichia coli): < 50%; inhibition at 200 µM (Staphylococcus aureus): < 50%; IC50 (Acinetobacter baumannii [4]): 22.8 µM; IC50 (Acinetobacter baumannii [5]): 195 µM; IC50 (Acinetobacter baumannii [6]): 120 µM; IC50 (Acinetobacter baumannii [7]): 143 µM; IC50 (Acinetobacter baumannii [8]): 85.3 µM; inhibition at 200 µM (Acinetobacter baumannii [9]): < 50%; inhibition at 200 µM (Pseudomonas aeruginosa): < 50%; inhibition at 200 µM [10]: < 50% |
| CCCCCCCCCCCCCC(=O)Nc1nc(Cl)cc(OC)n1 | 49.5 | > 256 | – |
| CCCCCCCCCCCCCC(=O)Nc1ncc(Cl)c(Cl)n1 | 30.9 | > 256 | – |
| CCCCCCCCCCCCCC(=O)N1CCN(c2ncccn2)CC1 | 27.9 | > 256 | – |
| CCCCCCCCCCCCCCCC(=O)Nc1ncccn1 | 22.5 | > 256 | – |
| CCCCCCCCCCCCCC(=O)Nc1nc(OC)cc(OC)n1 | 59.3 | > 256 | – |
| CCCCCCCCCCCCCC(=O)Nc1ncccn1 | 36.3 | > 256 | – |
| O=C(Nc1ncccn1)C(F)(F)C(F)(F)C(F)(F)F | 19.9 | > 256 | – |
| CCCCCCCCCC(=O)Nc1ncccn1 | 33.2 | > 256 | – |
| CCCCCCCCCCCCCC(=O)Nc1ncc(Cl)cn1 | 40.5 | > 256 | – |
| CCCCCCCCCCCCCC(=O)Nc1nc(N)cc(F)n1 | 53.1 | – | – |
| CCCCCCCCCCCC(=O)Nc1ncccn1 | 19.1 | > 256 | – |
